Results from BigSolDB 2.1.

c1ccc(CSSCc2ccccc2)cc1
Details | solubility (mole fraction)
in chloroform, 284.95 K | 0.102
in chloroform, 288.75 K | 0.131
in chloroform, 292.75 K | 0.16
in chloroform, 298.65 K | 0.208
in chloroform, 302.6 K | 0.246
in chloroform, 308.15 K | 0.291
in ethanol, 284.7 K | 0.000168
in ethanol, 289.45 K | 0.000398
in ethanol, 294.45 K | 0.000905
in ethanol, 299.55 K | 0.0019
in ethanol, 303.25 K | 0.00301
in ethanol, 308.25 K | 0.00524
in ethyl acetate, 285.55 K | 0.0332
in ethyl acetate, 289.95 K | 0.05
in ethyl acetate, 293.65 K | 0.0667
in ethyl acetate, 298.8 K | 0.0963
in ethyl acetate, 303.65 K | 0.131
in ethyl acetate, 308.4 K | 0.164
in n-hexane, 284.25 K | 0.000922
in n-hexane, 288.35 K | 0.0019
in n-hexane, 294.45 K | 0.00448
in n-hexane, 298.25 K | 0.00739
in n-hexane, 303.65 K | 0.0137
in n-hexane, 309.05 K | 0.0223
in toluene, 283.45 K | 0.0521
in toluene, 288.16 K | 0.0769
in toluene, 292.65 K | 0.103
in toluene, 299.35 K | 0.162
in toluene, 303.15 K | 0.198
in toluene, 308.65 K | 0.248
